Data as given in patent publication US20260373135A1, “Methods of Treatment with Tradipitant” (Vanda Pharmaceuticals Inc., priority 2022, published 2026).

Columns and labels:
CYP3A4 [1] = molecular target: T1, CYP3A4 (Homo sapiens, UniProt P08684); assay: Role of CYP3A4 genotype (CYP3A4*22) in metabolism/clearance of tradipitant, phase III study pharmacokinetics; type: in vivo
Experimental: To investigate the role of CYP3A4 genotypes in the metabolism of tradipitant, pharmacokinetics are analyzed in view of CYP3A4 genotype in a phase III study of humans dosed with tradipitant. In the investigation, all CYP3A4 alleles (as recognized by the Human Cytochrome P450 Allele Nomenclature Database) are reviewed. The analysis includes a linear model that is tested on various ratios of parent compound (tradipitant) or its metabolites, including: • Ratio A=Sum of (M2+M3+M4)/M8, and • Ratio B=(tradipitant)/(M3).
After correction for covariates, including principal components (PCs), age, sex, and body mass index (BMI), CYP3A4*22 is identified as a variant of interest, with a p-value of 1×10^−5. […] The effect of multiple alleles of interest is cumulative, as shown by the median ratios present in individuals having a CYP3A4 genotype of *22/*1, i.e. heterozygous for the *22 variant of interest (*22 het), compared with individuals having a CYP3A4 genotype of *22/*22+*3/*1 genotype, i.e., homozygous for the *22 variant of interest.
The graphs shown in FIGS. 2A-2H illustrate the plasma concentrations of tradipitant (FIG. 2A), metabolite M2 (FIG. 2B), metabolite M3 (FIG. 2C), metabolite M4 (FIG. 2D), metabolite M8 (FIG. 2E), ratio of tradipitant to M8 (FIG. 2F), ratio of all metabolites to M8 (i.e., (M2+M3+M4)/M8) (FIG. 2G), and ratio of tradipitant to M3 (FIG. 2H) in individuals in a study population. […] This reflects the reduced ability to clear tradipitant in individuals having a *22 allele.
The apparent clearance of tradipitant is plotted for individuals having a wild type (WT) genotype as compared to individuals having a heterozygous *22 (*22 het) genotype. The ratio of clearance (CL) in *22 het to WT is calculated as exp (median (HET)-median (WT)). Below these calculations, the P value is reported for a t test comparing the ETA values. […] Post hoc ETAs are the following: log (individual value for clearance/typical value for clearance), where “typical value” is essentially the median value. […]

CYP3A4 [2] = molecular target: T1, CYP3A4; assay: Co-administration of tradipitant with a CYP3A4 inhibitor; type: in vivo
Experimental: The method may further include administering tradipitant to the individual at a dose that is determined based upon whether or not a CYP3A4 inhibitor is co-administered with the tradipitant. In a case in which a CYP3A4 inhibitor is not being co-administered to the individual, the method includes administering tradipitant to the individual in a first amount, in a manner similar to the above-described case in which the individual has a CYP3A4 genotype associated with normal metabolism of tradipitant. However, in a case in which a CYP3A4 inhibitor is co-administered with tradipitant to the individual, then the method may include administering tradipitant to the individual in a second ament, where the second amount is smaller than the first amount, in a manner similar to the above-described case in which the individual has a CYP3A4 genotype that is associated with decreased metabolism of tradipitant relative to wildtype. In certain embodiments, the CYP3A4 inhibitor may be selected from amiodarone, aprepitant, cimetidine, ciprofloxacin, clarithromycin, diltiazem, erythromycin, fluconazole, grapefruit juice, itraconazole, ketoconazole, posaconazole, voriconazole, and verapamil. In particular embodiments, the CYP3A4 inhibitor may be considered a strong CYP3A4 inhibitor, and may be selected from: clarithromycin, itraconazole, ketoconazole, and posaconazole, or from ketoconazole and grapefruit juice.
As described above, in certain embodiments, the second, smaller amount of tradipitant may be about 60-90%, 60-85%, 60-80%, 60-75%, or 60-70% of the first amount; about 25-70%, 30-70%, 35-70%, 40-70%, 45-70%, 50-70%, 55-70%, or 60-70% of the first amount; about 35-95%, 40-90%, 50-80%, or 60-70% of the first amount; or about 66-68% of the first amount. The first amount is considered to be 100% of the amount that would be administered to an individual who is […] a CYP3A4 inhibitor with the tradipitant.
Therefore, the identification of an individual in need of treatment with tradipitant, who is or would be co-administered tradipitant and the CYP3A4 inhibitor, enables dosing with tradipitant in a manner that facilitates the desired exposure level of the patient to the parent compound and any active metabolites thereof. […]

[3] = Human metabolism of tradipitant in vitro and in vivo
Source text: Factors affecting metabolic clearance of tradipitant and its metabolites impact an individual's exposure to the parent compound, as well as any active metabolites.

NK-1 receptors = details: preclinical and clinical studies; cited from earlier work
[4] = co-administration with a CYP3A4 inhibitor

T1 sequence (P08684 whole entry): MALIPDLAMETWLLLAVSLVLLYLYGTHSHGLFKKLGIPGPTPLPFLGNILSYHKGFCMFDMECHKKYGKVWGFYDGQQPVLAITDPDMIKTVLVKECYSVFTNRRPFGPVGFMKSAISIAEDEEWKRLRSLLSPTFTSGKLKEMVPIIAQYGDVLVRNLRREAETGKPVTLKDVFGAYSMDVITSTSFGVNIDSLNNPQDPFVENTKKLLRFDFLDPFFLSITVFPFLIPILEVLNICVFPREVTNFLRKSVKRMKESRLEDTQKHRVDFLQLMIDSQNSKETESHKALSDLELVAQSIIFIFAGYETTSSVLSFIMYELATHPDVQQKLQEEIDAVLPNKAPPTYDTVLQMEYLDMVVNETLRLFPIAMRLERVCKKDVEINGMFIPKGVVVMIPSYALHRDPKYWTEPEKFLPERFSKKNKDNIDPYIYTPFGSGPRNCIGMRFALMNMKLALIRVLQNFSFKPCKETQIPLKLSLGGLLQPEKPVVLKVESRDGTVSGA

O=C(c1ccccc1Cl)c1cccnc1-c1nnn(Cc2cc(C(F)(F)F)cc(C(F)(F)F)c2)c1-c1ccncc1 [tradipitant, {2-[1-(3,5-Bistrifluoromethylbenzyl)-5-pyridin-4-yl-1H-[1,2,3]triazol-4-yl]-pyridin-3-yl}-(2-chlorophenyl)-methanone]
reduction of tradipitant clearance in *22 heterozygotes (CYP3A4 [1]; CYP3A4*22 heterozygotes vs wild type): 34%
median plasma concentration in *22 het vs wild type (CYP3A4 [1]; CYP3A4*22 heterozygous vs wild type (*1/*1), plasma, FIGS. 2A-2D): clearly greater median concentrations
median ratio of tradipitant to M8 in *22 het vs wild type (CYP3A4 [1]; CYP3A4*22 heterozygous vs wild type, plasma, FIG. 2F): clearly greater median ratio of tradipitant to M8
exposure to tradipitant with CYP3A4 inhibitors (CYP3A4 [2]; co-administration with CYP3A4 inhibitors, particularly strong): increased exposure to tradipitant
decrease in apparent clearance (CYP3A4 [2]; [4]): about 26.3%
increase in AUC (CYP3A4 [2]; [4]): about 36%
increase in Cmax (CYP3A4 [2]; [4]): about 26%
human metabolic pathways [3]: ketone reduction (metabolites M2, M4), N-glucuronidation (metabolite M8), pyridine N-oxidation (metabolites M3, M4), and glucuronidation (metabolite M8)
blockade of brain NK-1 receptors (NK-1 receptors): long-lasting blockade of brain NK-1 receptors
